From the METLIN SMRT retention time set (Domingo-Almenara et al. 2019)

Experiment: gradient 5% acetonitrile 3 min, to 50% in 2 min, to 85% in 15 min, held 3 min, 100 µL/min
Conditions: column: Zorbax Extend-C18 2.1 x 50 mm; eluents: water / acetonitrile, 0.1% formic acid
Method in brief: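 In both positive and negative ionization mode, a quadrupole time-of-flight mass spectrometer coupled to HPLC analyzed pure standards run in mixtures of ~100 molecules. The Zorbax Extend-C18 column (2.1 × 50 mm, 1.8 μm) was operated at 100 μL/min with water and acetonitrile, each containing 0.1% formic acid. The dead volume was 40 μL and the dwell volume 900 μL. Retention time came from adduct peaks that were computationally picked and individually inspected by hand.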

| Structure (SMILES) | RP-LC retention time |
| --- | --- |
| COc1cc(NC(=O)N2C[C@@H](F)C[C@H]2C(=O)N2CCc3ccccc3C2)cc(OC)c1 | 752 s |
| Cc1ccc(NC(=O)C2CCCN(S(=O)(=O)c3c[nH]c(C(=O)N4CCCCCC4)c3)C2)cc1 (stereo unspecified) | 926 s |
| CC(C)c1noc(N2CCC(COc3ccc(-c4ccc(S(C)(=O)=O)cc4)nc3)CC2)n1 | 991 s |
| CC(C(=O)N1CCN(C)CC1)n1c2ccccc2c2cnn(C)c(=O)c21 (stereo unspecified) | 612 s |
| COc1ccccc1-c1noc(Cn2cnc3c(cnn3-c3ccc(C)cc3)c2=O)n1 | 1100 s |
| CC(C)CCNC(=O)c1cc2n(n1)CC(C)(C(=O)NCc1ccccc1)N(C)C2=O (stereo unspecified) | 758 s |
| COCCNCc1c(C(=O)O)c(C)n(Cc2cccc(Cl)c2)c1C | 679 s |
| N#Cc1cccc(NC(=O)C2CCN(S(=O)(=O)c3cc(C(=O)N4CCOCC4)cs3)CC2)c1 | 748 s |
| CCC(C(=O)NCCc1c[nH]c2ccccc12)n1nc(C)c2nn(-c3ccccc3)c(C)c2c1=O (stereo unspecified) | 932 s |
| CCOc1ccc(NC(=O)N2CCC(c3nc(C(=O)N(C)C)c(C)o3)CC2)cc1 | 696 s |
| COc1ccc(C)cc1NC(=O)N1C[C@@H]2C[C@H](NS(C)(=O)=O)[C@H]1C2 | 717 s |
| Cc1nc(-c2cccc(C(=O)N3CCCc4ccccc43)c2)no1 | 900 s |
| Cc1noc(C)c1CC(=O)N1CC(n2cc(COc3ccc(F)cc3)nn2)C1 | 721 s |
| O=C(CSC1CCc2ccccc2NC1=O)NCc1ccc(Cl)cc1Cl (stereo unspecified) | 868 s |
| O=C(NCC1CCN(S(=O)(=O)C2CC2)CC1)C1(c2ccc(F)cc2)CC1 | 595 s |
| COc1ccc(CN2C(=O)[C@H](OC)[C@@H]2C2=CCN(S(=O)(=O)c3cccs3)CC2)cc1 | 872 s |
| CC(NC(=O)c1ccc2nc(-c3ccc(Cl)cc3)cn2c1)c1ccccn1 (stereo unspecified) | 635 s |
| COc1cc(NC(=O)Cn2c(=O)n(-c3ccc(C)cc3)c(=O)c3c2cc(C)n3C)cc(OC)c1 | 866 s |

| Structure (SMILES) | RP-LC retention time |
| --- | --- |
| O=C(Nc1cccnc1)C1CCN(S(=O)(=O)Cc2ccccc2)CC1 | 626 s |
| Cc1cc(C)c(S(=O)(=O)N2CC(c3nc(-c4ccncc4)no3)C2)cc1C | 974 s |
| Cc1cccc(-c2noc(Cc3nc(-c4ccccc4)cs3)n2)c1 | 1260 s |
| O=C1CC(c2noc(C3CCC3)n2)CN1c1ccccc1 (stereo unspecified) | 869 s |
| CN1CCN(c2ccc([N+](=O)[O-])c3no[n+]([O-])c23)CC1 | 631 s |
| CCN1/C(=C/C(C)=O)Sc2ccc(OC)cc21 | 845 s |
| Cc1ccc(-c2cc3n(n2)CCCN(C(=O)CCCC(=O)n2nc(C)c4ccccc42)C3)o1 | 859 s |
| CCc1ccc2nc(C)cc(C(=O)NC(C)C)c2c1 | 621 s |
| O=C(NCc1cccs1)c1nc(N2CCOCC2)c2ccccc2n1 | 641 s |
| Cc1nc(-c2csc(S(=O)(=O)N3CCCC(C(=O)Nc4ccc(C#N)cc4)C3)c2)no1 (stereo unspecified) | 935 s |
| CCOC(=O)Cc1ccc(NC(=O)N2CCC(n3c(C)nc4cccnc43)C2)cc1 (stereo unspecified) | 598 s |
| COc1ccc(-c2nc3cnccn3c2Nc2cccc(C)c2C)cc1OC | 838 s |
| CC(C)CNC(=O)c1cn(-c2cc(-c3nc(C(C)C)no3)ccn2)cn1 | 920 s |
| CC(C)NC(=O)Cn1cccc(-c2nc(-c3ccc(Cl)cc3)no2)c1=O | 807 s |
| COc1cccc(CNC(=O)C2(C)CCCN(S(=O)(=O)c3ccc(F)cc3F)C2)c1 (stereo unspecified) | 922 s |
| Cc1oc2c(c1C(=O)Nc1ccc(C(F)(F)F)cc1)C1=NC(C)(C)CN1C=N2 | 728 s |
| Cc1nc(C)n(CC(=O)Nc2ccc(F)cc2)c(=O)c1C | 630 s |
| O=C(CNC(=O)Cc1ccccc1)NCC(=O)N1CCCc2ccccc21 | 710 s |
